# Reference: ChEMBL document CHEMBL1143187, “Synthesis of and evaluation of lipid A modification by 4-substituted 4-deoxy arabinose analogs as potential inhibitors of bacterial polymyxin resistance” (Bioorg Med Chem Lett, 2008)
# Active and inactive are the calls of the source. No cut-off for these calls is given here.
# What was measured:
# Escherichia coli [1] = assay: Inhibition of Escherichia coli ArnB upto 100 uM
# Escherichia coli [2] = assay: Inhibition of Escherichia coli ArnA upto 100 uM
# [3] = target: Undecaprenyl phosphate-alpha-4-amino-4-deoxy-L-arabinose arabinosyl transferase (Salmonella typhimurium (strain LT2 / SGSC1412 / ATCC 700720)) (UniProt O52327); assay: Inhibition of PmrK/ArnT in Salmonella Typhimurium JSG435 membranes assessed as effect on transfer of aminoarabinose tp lipid A; settings: Salmonella enterica subsp. enterica serovar Typhimurium
SMILES,Activity (Escherichia coli [1]),Activity (Escherichia coli [2]),Activity [3]
CC(=O)OC1OC[C@H](N=[N+]=[N-])[C@H](OC(C)=O)[C@H]1OC(C)=O (stereo partly drawn),Active,Active,Active
CC(=O)O[C@@H]1[C@@H](OC(C)=O)[C@@H](OP(=O)(O)O)OC[C@@H]1N=[N+]=[N-],Active,Active,–

# Other lines, results leading:
Activity (Escherichia coli [1]),Activity (Escherichia coli [2]),Activity [3],SMILES
Active,Active,–,COP(=O)(N[C@H]1CO[C@H](OP(=O)(O)O)[C@H](OC(C)=O)[C@H]1OC(C)=O)OC
Active,Active,–,CCCCCCCCN.CCOP(=O)(Cc1ccccc1)N[C@H]1CO[C@H](OP(=O)(O)OP(=O)(O)OC[C@H]2O[C@@H](n3ccc(=O)[nH]c3=O)[C@H](O)[C@@H]2O)[C@H](OC(C)=O)[C@H]1OC(C)=O (stereo partly drawn)
Active,Active,–,COP(=O)(N[C@H]1CO[C@H](OP(=O)(OCc2ccccc2)OCc2ccccc2)[C@H](OC(C)=O)[C@H]1OC(C)=O)OC
Active,Active,–,CC(=O)O[C@@H]1[C@@H](OC(C)=O)[C@@H](OP(=O)(O)OP(=O)(O)OC[C@H]2O[C@@H](n3ccc(=O)[nH]c3=O)[C@H](O)[C@@H]2O)OC[C@@H]1N=[N+]=[N-].CCCCCCCCCN
